Data taken from ChEMBL document CHEMBL1201862, “PubChem BioAssay data set” (2004).
Calls of active or inactive are those of the source.

Tests used:
[1] = mouse fibroblast viability loss – cell-based, dry powder samples, cytotoxicity control, dose response (AID 651844); type: functional; settings: NIH3T3
[2] = mouse embryonic fibroblast toxicity – cell-based, plate reader, dry powder, set 2, cytotoxicity control, dose response (AID 652280); type: functional; settings: NIH3T3
HeLa = assay: viability loss in HeLa cells – cell-based, ATP luminescence, cherry-pick samples, cytotoxicity control, dose response (AID 687004); type: functional; settings: Homo sapiens
[3] = HEK293 Cytotoxicity Assay Measured in Cell-Based System Using Plate Reader - 7071-01_Inhibitor_Dose_CherryPick_Activity_Set2.; type: functional
HEK293 = assay: viability loss in HEK293T cells – cell-based, ATP luminescence, cherry-pick samples, cytotoxicity control, dose response (AID 687005); type: functional; settings: Homo sapiens;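 note: cells exposed to compound for 48 hours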
[4] = Late stage assay provider results from the probe development effort to identify inhibitors of the Plasmodium falciparum M18 Aspartyl Aminopeptidase (M18AAP): radiolabel-based cell-based dose response assay to identify compounds that inhibit P. falciparum growth in RBCs, Set 2..; type: functional
[5] = biological target: T1, NAD-dependent protein deacylase sirtuin-5, mitochondrial (Homo sapiens, UniProt Q9NXA8); assay: sirtuin-5 deacylation blockers, concentration series – biochemical, fluorescence imaging, cherry-pick, set 5, dose response (AID 720591);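 note: desuccinylation of succinyl peptide AMC substrate read as fluorescence after trypsin release; potency of inhibitors that lower fluorescence and may act on trypsin instead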
T1 sequence (Q9NXA8 whole entry): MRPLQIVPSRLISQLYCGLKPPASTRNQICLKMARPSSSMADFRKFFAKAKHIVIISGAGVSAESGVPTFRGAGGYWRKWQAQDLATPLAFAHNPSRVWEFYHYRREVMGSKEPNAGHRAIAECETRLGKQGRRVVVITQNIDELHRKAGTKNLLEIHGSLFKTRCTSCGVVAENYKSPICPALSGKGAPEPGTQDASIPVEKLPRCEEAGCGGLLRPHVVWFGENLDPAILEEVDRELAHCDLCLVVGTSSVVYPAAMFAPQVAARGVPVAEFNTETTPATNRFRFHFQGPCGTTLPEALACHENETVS

[6] = Trypanosoma cruzi growth suppression in host cells – NIH3T3 host cells, beta-gal luminescence, confirmation (AID 2044); type: functional, cell-based;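 note: intracellular parasites grown in NIH/3T3 mouse fibroblasts as host cells; luminescent beta-galactosidase reporter signal from transgenic T. cruzi replicating inside host cells; inhibitors lower the luminescence signal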
[7] = NIH3T3 cell viability loss – ATP luminescence, mouse fibroblasts, counter-screen, dose response (AID 2010); type: functional, cell-based;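 note: cells exposed to compound for about 90 hours before reading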
[8] = biological target: T1, NAD-dependent protein deacylase sirtuin-5, mitochondrial; assay: blockers of sirtuin-5 peptide desuccinylation – biochemical, fluorescence imaging, cherry-pick, set 6, dose response (AID 720597)
[9] = MITF Orthogonal Assay: SK-MEL-5 CTG Assay Measured in Cell-Based System Using Plate Reader - 2084-02_Inhibitor_Dose_DryPowder_Activity_Set5.; type: functional
[10] = MITF Measured in Cell-Based System Using Plate Reader - 2084-01_Inhibitor_Dose_DryPowder_Activity_Set6.; type: functional
[11] = MITF Measured in Cell-Based System Using Plate Reader - 2084-01_Inhibitor_Dose_DryPowder_Activity_Set7.; type: functional
[12] = cytotoxicity in MITF-independent A375 cells – cell-based, CellTiter-Glo luminescence, dry powder, set 4, counter-screen for MITF inhibitor project, dose response (AID 624364); type: functional; settings: A-375;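 note: A375 melanoma cells are MITF independent so this is a counter screen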
[13] = growth inhibition of SK-MEL-5 melanoma cells – cell-based, CellTiter-Glo luminescence, dry powder, set 8, orthogonal assay for MITF inhibitor project, dose response (AID 651586); type: functional
[14] = inhibitors of TRPM1-promoter reporter in SK-MEL-5 – cell-based, luciferase, dry powder, set 9, MITF inhibitor project, dose response (AID 651588); type: functional
[15] = biological target: Potassium channel subfamily K member 3 (Rattus norvegicus, UniProt O54912); assay: SAR analysis for the identification of selective inhibitors of the two-pore domain potassium channel TASK1(KCNK3):Automated Electrophysiology.; type: functional
Chain of Potassium channel subfamily K member 3 (Rattus norvegicus, UniProt O54912) (O54912 whole entry, the tested form may be a part): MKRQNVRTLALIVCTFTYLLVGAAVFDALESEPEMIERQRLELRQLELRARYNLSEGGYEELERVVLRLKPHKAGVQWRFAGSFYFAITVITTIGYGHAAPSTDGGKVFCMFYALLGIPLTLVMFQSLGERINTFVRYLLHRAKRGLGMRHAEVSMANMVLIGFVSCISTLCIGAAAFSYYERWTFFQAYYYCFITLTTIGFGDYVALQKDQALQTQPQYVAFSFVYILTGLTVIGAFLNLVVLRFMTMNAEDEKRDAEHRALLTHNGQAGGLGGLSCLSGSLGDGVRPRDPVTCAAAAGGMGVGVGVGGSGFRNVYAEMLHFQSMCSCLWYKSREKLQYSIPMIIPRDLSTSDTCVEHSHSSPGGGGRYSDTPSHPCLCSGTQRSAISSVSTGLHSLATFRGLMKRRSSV

[16] = biological target: Potassium channel subfamily K member 3 (Homo sapiens, UniProt O14649); assay: inhibition of human KCNK3 channel flux – CHO cells, FluxOR thallium flux, SAR follow-up (AID 652212); type: functional
Chain of Potassium channel subfamily K member 3 (Homo sapiens, UniProt O14649) (O14649 whole entry): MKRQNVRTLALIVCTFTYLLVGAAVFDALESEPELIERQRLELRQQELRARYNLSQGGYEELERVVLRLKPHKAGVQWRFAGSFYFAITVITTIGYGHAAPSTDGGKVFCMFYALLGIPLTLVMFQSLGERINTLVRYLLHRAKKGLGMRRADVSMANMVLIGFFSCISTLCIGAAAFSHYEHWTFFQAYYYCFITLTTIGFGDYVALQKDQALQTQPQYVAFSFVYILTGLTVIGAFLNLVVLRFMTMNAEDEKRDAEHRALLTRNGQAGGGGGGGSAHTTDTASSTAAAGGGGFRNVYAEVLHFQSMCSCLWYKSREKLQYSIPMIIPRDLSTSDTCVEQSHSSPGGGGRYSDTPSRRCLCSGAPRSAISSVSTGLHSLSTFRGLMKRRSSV

Caspase-6 = Caspase-6 (Homo sapiens, UniProt P55212); assay: inhibition of CASP6 peptide cleavage – biochemical, VEID-R110 fluorescence, cherry-pick, dose response (AID 720632)
Chain of Caspase-6 (P55212 24-179 limits assumed): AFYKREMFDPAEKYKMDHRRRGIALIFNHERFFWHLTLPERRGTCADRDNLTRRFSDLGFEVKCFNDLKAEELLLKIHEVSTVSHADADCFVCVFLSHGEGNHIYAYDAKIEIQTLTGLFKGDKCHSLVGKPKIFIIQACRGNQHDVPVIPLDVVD
Chain of Caspase-6 (P55212 194-293 limits assumed): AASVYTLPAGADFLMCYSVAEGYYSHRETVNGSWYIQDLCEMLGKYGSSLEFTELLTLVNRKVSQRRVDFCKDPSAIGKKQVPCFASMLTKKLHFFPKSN

[17] = biological target: T2, DNA repair protein RAD52 homolog (Homo sapiens, UniProt P43351); type: functional, biochemical
T2 sequence (P43351 whole entry): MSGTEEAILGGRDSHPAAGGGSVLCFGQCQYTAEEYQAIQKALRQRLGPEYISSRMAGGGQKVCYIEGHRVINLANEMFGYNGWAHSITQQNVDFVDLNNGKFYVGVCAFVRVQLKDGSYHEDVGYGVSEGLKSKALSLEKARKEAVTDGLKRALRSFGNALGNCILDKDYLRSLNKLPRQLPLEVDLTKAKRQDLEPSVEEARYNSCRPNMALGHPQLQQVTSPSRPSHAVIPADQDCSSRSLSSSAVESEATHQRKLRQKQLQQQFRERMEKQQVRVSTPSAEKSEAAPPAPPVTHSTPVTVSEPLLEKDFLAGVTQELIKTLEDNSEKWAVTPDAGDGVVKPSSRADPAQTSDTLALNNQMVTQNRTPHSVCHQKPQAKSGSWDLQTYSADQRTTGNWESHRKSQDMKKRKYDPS

[18] = biological target: T3, Histone-lysine N-methyltransferase NSD2 (Homo sapiens, UniProt O96028); type: biochemical
T3 sequence (O96028 whole entry): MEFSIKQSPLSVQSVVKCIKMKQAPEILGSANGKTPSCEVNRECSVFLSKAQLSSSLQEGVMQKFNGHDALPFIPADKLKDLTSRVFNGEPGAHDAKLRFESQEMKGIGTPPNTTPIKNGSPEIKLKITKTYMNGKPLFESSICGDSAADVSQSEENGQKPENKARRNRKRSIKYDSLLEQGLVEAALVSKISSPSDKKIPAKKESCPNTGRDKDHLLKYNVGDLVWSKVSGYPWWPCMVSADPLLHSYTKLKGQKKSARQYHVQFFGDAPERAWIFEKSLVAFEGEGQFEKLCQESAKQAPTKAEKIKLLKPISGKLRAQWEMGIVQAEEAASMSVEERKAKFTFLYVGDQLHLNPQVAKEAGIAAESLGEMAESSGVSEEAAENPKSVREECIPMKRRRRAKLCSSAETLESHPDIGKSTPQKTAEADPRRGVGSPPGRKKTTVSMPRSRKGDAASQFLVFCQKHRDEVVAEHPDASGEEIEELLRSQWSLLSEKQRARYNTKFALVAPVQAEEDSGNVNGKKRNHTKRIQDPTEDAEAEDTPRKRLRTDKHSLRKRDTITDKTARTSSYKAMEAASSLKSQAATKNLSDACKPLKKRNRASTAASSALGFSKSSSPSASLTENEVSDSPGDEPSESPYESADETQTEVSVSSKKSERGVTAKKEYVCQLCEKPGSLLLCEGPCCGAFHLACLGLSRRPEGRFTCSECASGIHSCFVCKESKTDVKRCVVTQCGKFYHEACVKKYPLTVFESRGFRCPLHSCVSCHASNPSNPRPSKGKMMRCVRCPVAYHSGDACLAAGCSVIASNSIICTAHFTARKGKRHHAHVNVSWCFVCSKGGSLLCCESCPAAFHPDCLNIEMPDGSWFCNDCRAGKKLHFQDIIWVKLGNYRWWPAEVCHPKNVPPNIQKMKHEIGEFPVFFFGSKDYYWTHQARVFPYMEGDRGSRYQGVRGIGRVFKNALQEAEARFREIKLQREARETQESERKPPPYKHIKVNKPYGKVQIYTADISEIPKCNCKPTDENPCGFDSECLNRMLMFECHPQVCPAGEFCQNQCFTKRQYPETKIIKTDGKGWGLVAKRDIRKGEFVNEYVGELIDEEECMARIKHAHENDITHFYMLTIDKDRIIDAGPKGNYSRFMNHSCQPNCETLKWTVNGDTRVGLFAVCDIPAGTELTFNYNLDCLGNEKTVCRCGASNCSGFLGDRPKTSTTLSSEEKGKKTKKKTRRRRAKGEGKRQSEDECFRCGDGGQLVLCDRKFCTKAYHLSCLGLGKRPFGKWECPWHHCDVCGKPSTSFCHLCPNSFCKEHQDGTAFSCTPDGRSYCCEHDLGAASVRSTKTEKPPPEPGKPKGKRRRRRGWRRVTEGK

Protein skinhead-1 = biological target: T4, Protein skinhead-1 (Caenorhabditis elegans, UniProt P34707); type: functional
T4 sequence (P34707 whole entry): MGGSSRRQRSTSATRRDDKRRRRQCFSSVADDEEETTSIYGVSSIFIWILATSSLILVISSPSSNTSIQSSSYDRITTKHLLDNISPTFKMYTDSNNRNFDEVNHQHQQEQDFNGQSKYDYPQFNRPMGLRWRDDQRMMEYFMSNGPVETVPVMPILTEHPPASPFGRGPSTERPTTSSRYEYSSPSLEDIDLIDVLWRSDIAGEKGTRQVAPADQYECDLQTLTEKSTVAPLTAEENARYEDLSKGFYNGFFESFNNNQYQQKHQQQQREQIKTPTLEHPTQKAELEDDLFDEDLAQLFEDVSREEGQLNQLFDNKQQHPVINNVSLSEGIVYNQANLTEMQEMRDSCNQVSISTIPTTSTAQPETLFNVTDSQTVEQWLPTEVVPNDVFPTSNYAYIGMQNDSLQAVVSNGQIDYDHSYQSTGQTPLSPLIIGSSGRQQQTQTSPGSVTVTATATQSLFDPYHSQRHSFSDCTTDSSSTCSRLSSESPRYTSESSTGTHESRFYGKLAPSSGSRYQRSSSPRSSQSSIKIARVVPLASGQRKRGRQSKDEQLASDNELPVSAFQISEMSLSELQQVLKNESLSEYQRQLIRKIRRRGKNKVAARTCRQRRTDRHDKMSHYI

Caspase-7 = Caspase-7 (Homo sapiens, UniProt P55210); assay: caspase-7 enzyme inhibition, selectivity check – biochemical, DEVD-R110 fluorescence, cherry-pick, selectivity assay for caspase-6 inhibitor project, dose response (AID 743295); type: functional
Chain of Caspase-7 (P55210 24-198 limits assumed): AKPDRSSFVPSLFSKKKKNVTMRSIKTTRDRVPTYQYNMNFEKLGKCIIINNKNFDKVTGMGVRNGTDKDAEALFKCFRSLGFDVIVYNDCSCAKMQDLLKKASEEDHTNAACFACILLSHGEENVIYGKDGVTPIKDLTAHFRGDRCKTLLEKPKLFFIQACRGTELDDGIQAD
Chain of Caspase-7 (P55210 207-303 limits assumed): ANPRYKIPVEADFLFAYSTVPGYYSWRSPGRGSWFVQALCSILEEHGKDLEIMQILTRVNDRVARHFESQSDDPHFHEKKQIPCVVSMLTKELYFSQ

cells [19] = settings: A549
[20] = reduction of Shn3 3'UTR-driven luciferase in osteoblasts – cell-based, Clone20 osteoblasts, firefly luciferase, cherry-picked, dose response (AID 624132); type: functional;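 note: firefly luciferase luminescence from reporter carrying the Shn3 3'UTR in osteoblasts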
cells [21] = type: functional, cell-based; settings: HEK-CNG
[22] = loss of viability in HepG2 cells – cell-based, CellTiter-Glo, cherry-picked, cytotoxicity control for Shn3 inhibitor project, dose response (AID 624134); type: functional
[23] = non-specific 3'UTR reporter inhibition in Clone20-Shn3RL – cell-based, Renilla luciferase, cherry-picked, counter-screen for Shn3 inhibitor project, dose response (AID 624133); type: functional
Galanin receptor type 3 = biological target: T5, Galanin receptor type 3 (Homo sapiens, UniProt O60755); assay: Fluorescence-based cell-based primary high throughput dose response assay to identify antagonists of the Galanin Receptor 3 (GalR3).; type: functional
T5 sequence (O60755 whole entry): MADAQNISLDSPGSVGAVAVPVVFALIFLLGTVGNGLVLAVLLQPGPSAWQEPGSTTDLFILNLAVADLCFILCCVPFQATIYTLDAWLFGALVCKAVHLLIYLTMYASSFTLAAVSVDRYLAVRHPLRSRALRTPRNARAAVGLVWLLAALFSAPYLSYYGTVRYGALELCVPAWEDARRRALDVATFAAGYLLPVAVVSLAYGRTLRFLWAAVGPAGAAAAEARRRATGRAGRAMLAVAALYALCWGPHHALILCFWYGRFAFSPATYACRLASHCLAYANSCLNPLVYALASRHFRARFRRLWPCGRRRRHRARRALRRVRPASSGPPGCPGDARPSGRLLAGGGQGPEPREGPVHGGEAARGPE

[24] = biological target: COUP transcription factor 2 (Homo sapiens, UniProt P24468); assay: Luminescence-based cell-based high throughput dose response assay to identify inhibitors of COUP-TFII (NR2F2).; type: functional;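 note: HEK293 cells transiently cotransfected with COUP-TFII expression vector and reporter; luciferase reporter luminescence driven by COUP-TFII from the pX2-168 reporter plasmid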
Chain of COUP transcription factor 2 (P24468 whole entry): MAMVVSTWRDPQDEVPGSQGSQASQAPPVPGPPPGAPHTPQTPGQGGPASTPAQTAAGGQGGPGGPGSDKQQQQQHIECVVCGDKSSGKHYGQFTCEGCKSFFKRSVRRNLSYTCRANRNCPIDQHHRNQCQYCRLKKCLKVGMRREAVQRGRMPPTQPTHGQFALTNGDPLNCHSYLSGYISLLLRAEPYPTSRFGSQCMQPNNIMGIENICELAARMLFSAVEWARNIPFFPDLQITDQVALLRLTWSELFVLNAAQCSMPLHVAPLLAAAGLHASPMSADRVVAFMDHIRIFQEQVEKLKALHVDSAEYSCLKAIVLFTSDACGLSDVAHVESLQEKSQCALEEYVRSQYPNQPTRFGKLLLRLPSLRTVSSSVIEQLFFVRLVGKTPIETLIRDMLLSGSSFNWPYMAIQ

[25] = Shn3 3'UTR reporter signal decrease – cell-based, Clone20 osteoblasts, firefly luciferase, cherry-pick, set 2, Schnurri-3 inhibitor project, dose response (AID 720490); type: functional;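 note: actives lower the luminescence signal as inhibitors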
[26] = viability loss in HepG2 liver cells – cell-based, ATP luminescence, cherry-pick, set 6, cytotoxicity control, dose response (AID 1053125); type: functional
Kallikrein-7 = Kallikrein-7 (Homo sapiens, UniProt P49862); assay: Fluorescence Intensity-based biochemical primary high throughput dose response assay to identify activators of kallikrein-7 (K7) zymogen.
Chain of Kallikrein-7 (P49862 whole entry): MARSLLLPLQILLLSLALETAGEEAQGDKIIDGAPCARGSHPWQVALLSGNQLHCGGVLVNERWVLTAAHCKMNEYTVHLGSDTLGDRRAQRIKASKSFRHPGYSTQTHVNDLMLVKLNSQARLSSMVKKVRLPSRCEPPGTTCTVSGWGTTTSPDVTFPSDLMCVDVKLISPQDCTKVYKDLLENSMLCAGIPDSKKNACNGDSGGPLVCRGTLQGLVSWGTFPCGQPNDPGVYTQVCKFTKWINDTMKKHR

SMILES: CC(C)N1C[C@H](C)[C@@H](CN(C)Cc2ccc(Oc3ccccc3)cc2)Oc2c(NC(=O)C3CCN(C)CC3)cccc2C1=O
- AC50 [1]: 8.58 µM (active)
- AC50 [2]: 8.58 µM (active)

SMILES: CC(C)CC#Cc1ccc2c(c1)O[C@H](CN(C)C(=O)C1CCC1)[C@@H](C)CN([C@@H](C)CO)S2(=O)=O
- AC50 (HeLa): > 52 µM (inactive)
- AC50 [3]: 15.8 µM (active)
- AC50 (HEK293): 15.8 µM (active)

SMILES: COc1ccc(CCN(C)c2c3ccccc3nc3ccccc23)cc1OC
- IC50 [4]: 4.5 µM (active)

SMILES: CN1CCN(C(=O)COc2ccc(N(C)S(=O)(=O)c3ccc(F)cc3)cc2)CC1
- AC50 [5]: > 30 µM (inactive)
- EC50 [6]: 346 nM (active)
- EC50 [7]: > 60 µM (not active)

SMILES: COCC(=O)Nc1ccc2c(c1)OC[C@@H](C)N(CCc1ccccc1)C[C@@H](C)[C@H](OC)CN(C)C2=O
- AC50 [8]: > 30 µM (inactive)

SMILES: NC1=C(NS(=O)(=O)c2ccc(Br)s2)C(=O)c2ccccc2C1=O
- AC50 [9]: > 70 µM (inactive)
- AC50 [10]: > 70 µM (inactive)
- AC50 [11]: 65.8 µM (active)
- AC50 [12]: > 70 µM (inactive)
- AC50 [13]: > 70 µM (inactive)
- AC50 [14]: > 70 µM (inactive)

SMILES: Cc1cccc(C(=O)Nc2cccc(NC(=O)c3ccncc3)c2)c1
- IC50 [15]: 2.14 µM (active)
- IC50 [16]: 162 nM (active)

SMILES: COc1cc(NCCCCC(C)N)c2nccc(C)c2c1 (stereo not drawn)
- AC50 (Caspase-6): 4.77 µM (active)
- AC50 [17]: 5.43 µM (active)
- AC50 [18]: 2.52 µM (active)
- IC50 (Protein skinhead-1): > 100 µM (inactive)
- AC50 (Caspase-7): 24.9 µM (active)

SMILES: Cc1noc(C)c1-c1ccc(C(=O)NCCc2ccccc2)c2occc12
- AC50 (cells [19]): > 52 µM (inactive)

SMILES: O=C(CSc1nnc(-c2cccnc2)s1)Nc1ccnc2ccccc12
- AC50 [20]: 661 nM (active)
- EC50 (cells [21]): > 29.9 µM (inactive)
- AC50 [22]: 39.3 µM (active)
- AC50 [23]: 2.34 µM (active)
- IC50 (Galanin receptor type 3): 1.18 µM (active)
- IC50 [24]: 5.33 µM (active)
- AC50 [25]: 1.19 µM (active)

SMILES: CCOc1ccc2nc(NCCCNS(=O)(=O)c3ccc(F)cc3)c(C#N)cc2c1
- AC50 [26]: > 52 µM (inactive)

SMILES: Fc1ccc(-c2nc3cnccn3c2NC2CCCC2)cc1
- EC50 (Kallikrein-7): > 7.72 µM (active)
